What all share (assay): relative viability (nuclei count vs DMSO), 5 days (fraction); higher = more cells survive
Compound in the assay “Vemurafenib + Foretinib”: CCCS(=O)(=O)Nc1ccc(F)c(C(=O)c2c[nH]c3ncc(-c4ccc(Cl)cc4)cc23)c1F [Vemurafenib] + COc1cc2c(Oc3ccc(NC(=O)C4(C(=O)Nc5ccc(F)cc5)CC4)cc3F)ccnc2cc1OCCCN1CCOCC1 [Foretinib] (partner 0.25 µM)
In a few lines:
(§1)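 Medians of duplicate plates are given as relative viability. That measure is the nuclei count in treated wells divided by the count in vehicle wells. Counts were taken on 4× images of lung cancer cell lines in 1536-well plates, 5 days after pin-tool dosing the day after seeding with one drug alone or a fixed anchor-drug dose plus five library-drug doses (not always all listed) in √10 steps.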

Compound in the assay “Vemurafenib + Dasatinib”: CCCS(=O)(=O)Nc1ccc(F)c(C(=O)c2c[nH]c3ncc(-c4ccc(Cl)cc4)cc23)c1F [Vemurafenib] + Cc1nc(Nc2ncc(C(=O)Nc3c(C)cccc3Cl)s2)cc(N2CCN(CCO)CC2)n1 [Dasatinib] (partner 0.075 µM)
The method in brief:
as §1

Compound in the assay “OSI-027 + Navitoclax”: COc1cccc2cc(-c3nc([C@H]4CC[C@H](C(=O)O)CC4)n4ncnc(N)c34)[nH]c12 [OSI-027] + CC1(C)CCC(c2ccc(Cl)cc2)=C(CN2CCN(c3ccc(C(=O)NS(=O)(=O)c4ccc(N[C@H](CCN5CCOCC5)CSc5ccccc5)c(S(=O)(=O)C(F)(F)F)c4)cc3)CC2)C1 [Navitoclax] (partner 0.5 µM)
The method in brief:
as §1

Compound in the assay “OSI-027 + Tozasertib”: COc1cccc2cc(-c3nc([C@H]4CC[C@H](C(=O)O)CC4)n4ncnc(N)c34)[nH]c12 [OSI-027] + Cc1cc(Nc2cc(N3CCN(C)CC3)nc(Sc3ccc(NC(=O)C4CC4)cc3)n2)n[nH]1 [Tozasertib] (partner 0.1 µM)
The method in brief: as §1

In the supplement of paper PMC10307832 one finds relative viability data, which are given here for one cell line.

Regarding UMC-11, the relative viability with Vemurafenib + Foretinib (first compound 0.03162 µM) is 1.02; in the assay with Vemurafenib + Foretinib (first compound 0.1 µM), 1; with Vemurafenib + Foretinib (first compound 0.3162 µM), 1.15; with Vemurafenib + Foretinib (first compound 1 µM), 0.923; with Vemurafenib + Dasatinib (first compound 0.03162 µM) it was 0.465; with Vemurafenib + Dasatinib (first compound 0.1 µM), 0.459. Also, the relative viability was found to be 0.455 in the assay with Vemurafenib + Dasatinib (first compound 0.3162 µM); 0.537 in the assay with Vemurafenib + Dasatinib (first compound 1 µM); 0.317 with OSI-027 + Navitoclax (first compound 0.01 µM); 0.29 with OSI-027 + Navitoclax (first compound 0.03162 µM); 0.29 in the assay with OSI-027 + Navitoclax (first compound 0.1 µM); 0.257 with OSI-027 + Navitoclax (first compound 0.3162 µM). The relative viability with OSI-027 + Navitoclax (first compound 1 µM) worked out at 0.216; in the assay with OSI-027 + Tozasertib (first compound 0.01 µM), 0.235; in the assay with OSI-027 + Tozasertib (first compound 0.03162 µM), 0.208; in the assay with OSI-027 + Tozasertib (first compound 0.1 µM), 0.203; in the assay with OSI-027 + Tozasertib (first compound 0.3162 µM) it was 0.204; with OSI-027 + Tozasertib (first compound 1 µM), 0.2.
